The values below come from US20110319362A1, “STAT3 LIGANDS AND THERAPEUTIC USES THEREOF” (priority 2008, published 2011).

In one experiment the target is T1, STAT3 protein (Homo sapiens, UniProt P40763).
T1 construct: human STAT3 protein (residues 122-722) fused to His-tag; His-tag
The experiment in a line: In vitro competitive STAT3 binding assay (fluorescence polarization). An outline of the steps:
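FP competition: His-tagged human STAT3 (122-722), 150 nM, with 5 nM 5-Fam-labelled pYLPQTV phosphopeptide tracer (STT2) and titrated inhibitor, read after 2-3 h. IC50 = concentration displacing 50% of tracer, by nonlinear least-squares fit.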
(In general: Fluorescence polarisation rises when a labelled molecule tumbles more slowly, as on binding a larger partner.)

Experiment [1] deals with MDA-MB-231 cancer cell line. The experiment in a line: Cell growth assay (WST-8). The format is cell-based. The note with it: Homo sapiens, MDA-MB-231, 96 h; WST-8, 4 days; read-out: Inhibition of cell growth IC50, MDA-MB-231 cancer cell line. Put shortly:
(§1)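 Cells (3000–4000/well) grown 4 days with varied compound concentrations, then WST-8 dye added for 1–3 h and absorbance read at 450 nm. Growth inhibition expressed as sample-to-control absorbance ratio.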
Background: Tetrazolium dyes change colour on reduction, which living cells bring about.

The test system of experiment [2] is MDA-MB-468 cancer cell line. The experiment in a line: Cell growth assay (WST-8). The format is cell-based. The note with it: Homo sapiens, MDA-MB-468, 96 h; WST-8, 4 days; read-out: Inhibition of cell growth IC50, MDA-MB-468 cancer cell line. Put shortly:
as §1

The mark [3] stands for this setting: FP competitive binding, fluorescently tagged STT2 peptide tracer, read-out: Binding affinities to STAT3 IC50.

The structures appear in SMILES notation. Like-named read-outs stand apart in the source and are kept apart here.

T1 sequence (P40763 122-722): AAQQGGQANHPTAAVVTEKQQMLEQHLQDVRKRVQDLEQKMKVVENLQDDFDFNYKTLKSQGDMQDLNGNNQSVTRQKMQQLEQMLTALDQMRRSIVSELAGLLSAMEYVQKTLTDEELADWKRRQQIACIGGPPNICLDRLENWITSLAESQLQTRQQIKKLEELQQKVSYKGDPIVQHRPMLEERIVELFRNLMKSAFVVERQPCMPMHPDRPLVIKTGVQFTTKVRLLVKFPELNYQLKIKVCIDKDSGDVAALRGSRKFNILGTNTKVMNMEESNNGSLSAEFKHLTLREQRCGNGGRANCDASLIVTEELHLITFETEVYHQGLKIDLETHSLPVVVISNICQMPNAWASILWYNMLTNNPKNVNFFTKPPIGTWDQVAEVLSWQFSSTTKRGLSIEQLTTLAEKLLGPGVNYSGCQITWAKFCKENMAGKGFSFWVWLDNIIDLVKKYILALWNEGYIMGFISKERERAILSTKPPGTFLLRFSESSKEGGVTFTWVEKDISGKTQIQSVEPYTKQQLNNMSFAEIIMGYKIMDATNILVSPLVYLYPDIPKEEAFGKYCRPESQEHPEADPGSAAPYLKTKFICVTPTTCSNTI

As usually defined, the IC50 is the concentration that inhibits the measured activity by half. Regarding `CN[C@H](Cc1ccc(OCP(=O)(O)O)cc1)C(=O)N[C@H]1CCCCC2CC[C@@H](C(=O)N[C@@H](Cc3c[nH]cn3)C(=O)NCc3ccccc3)N2C1=O` (stereo partly drawn), the IC50 is < 100 µM on STAT3 protein (setting [3]), > 100 µM in experiment [1] and > 100 µM in experiment [2].

Regarding `CC(=O)NCCC[C@H](NC(=O)[C@@H]1CCC2CCCC[C@H](NC(=O)[C@H](Cc3ccc(OC(C(=O)O)C(=O)O)cc3)N(C)C)C(=O)N21)C(=O)NCc1ccccc1` (stereo partly drawn), the IC50 at STAT3 protein (setting [3]) was > 10 µM; in experiment [1], > 100 µM; in experiment [2], > 100 µM.

Regarding `CCCCCCCCNC(=O)[C@H](CCC(N)=O)NC(=O)[C@@H]1CCC2CCCC[C@H](NC(=O)[C@H](Cc3ccc(OP(=O)(O)O)cc3)NC)C(=O)N21` (stereo partly drawn), the IC50 at STAT3 protein (setting [3]) is < 5 µM; in experiment [1], > 100 µM; in experiment [2], > 100 µM.

For the molecule `CN(C)C(=O)CCCNC(=O)[C@@H]1CC[C@@H]2CCCC[C@H](NC(=O)[C@H](Cc3ccc(OP(=O)(O)O)cc3)NC(=O)OCc3ccccc3)C(=O)N21` [Example 18], the values for the IC50 (on STAT3 protein (setting [3]); in experiment [1]; in experiment [2]) were < 30 µM, > 100 µM and > 100 µM, respectively.

As for `CNC(=O)CCCNC(=O)[C@@H]1CC[C@@H]2CCCC[C@H](NC(=O)[C@H](Cc3ccc(OP(=O)(O)O)cc3)NC(=O)OCc3ccccc3)C(=O)N21` [Example 17], the IC50 at STAT3 protein (setting [3]) is < 30 µM; in experiment [1] it was > 100 µM; in experiment [2], > 100 µM.

For the molecule `CN(C)CCCCNC(=O)[C@@H]1CCC2CCCC[C@H](NC(=O)[C@H](Cc3ccc(OP(=O)(O)O)cc3)NC(=O)OCc3ccccc3)C(=O)N21` (stereo partly drawn), the 50% inhibitory concentration (IC50) on STAT3 protein (setting [3]) is < 30 µM; in experiment [1], > 100 µM; in experiment [2], > 100 µM.

In the case of `CCOC(=O)C(Oc1ccc(C[C@@H](C(=O)N[C@H]2CCCCC3CC[C@@H](C(=O)N[C@@H](Cc4c[nH]cn4)C(=O)NCc4ccccc4)N3C2=O)N(C)C)cc1)C(=O)OCC` (stereo partly drawn), the IC50 was > 10 µM at STAT3 protein (setting [3]), > 100 µM in experiment [1] and > 100 µM in experiment [2].

In the case of `CN[C@@H](Cc1ccc(OP(=O)(O)O)cc1)C(=O)N[C@H]1CCCCC2CC[C@@H](C(=O)N[C@@H](CCC(N)=O)C(=O)NCc3ccccc3)N2C1=O` (stereo in doubt) [Example 40], the IC50 on STAT3 protein (setting [3]) is < 1 µM; in experiment [1], > 30 µM; in experiment [2], > 100 µM.

With `CNC(=O)[C@H](CCCN)NC(=O)[C@@H]1CC[C@@H]2CCCC[C@H](NC(=O)[C@H](Cc3ccc(OP(=O)(O)O)cc3)NC(=O)OCc3ccccc3)C(=O)N21` [Example 21], the IC50 at STAT3 protein was < 10 µM; in experiment [1], > 100 µM; in experiment [2] it was > 100 µM.

For the molecule `NCCCCNC(=O)[C@@H]1CC[C@@H]2CCCC[C@H](NC(=O)[C@H](Cc3ccc(OP(=O)(O)O)cc3)NC(=O)OCc3ccccc3)C(=O)N21` [Example 14], the IC50 is < 10 µM at STAT3 protein (setting [3]), > 100 µM in experiment [1] and > 100 µM in experiment [2].

Regarding `CCOC(=O)C(Oc1ccc(C[C@H](NC(C)=O)C(=O)N[C@H]2CCCCC3CC[C@@H](C(=O)N[C@@H](CCC(N)=O)C(=O)NCc4ccccc4)N3C2=O)cc1)C(=O)OCC` (stereo partly drawn), the IC50 was > 100 µM at STAT3 protein (setting [3]), > 30 µM in experiment [1] and > 100 µM in experiment [2].

Consider `CCOC(=O)COc1ccc(C[C@H](NC(C)=O)C(=O)N[C@H]2CCCCC3CC[C@@H](C(=O)N[C@@H](CCC(N)=O)C(=O)NCc4ccccc4)N3C2=O)cc1` (stereo partly drawn), for which the IC50 (at STAT3 protein (setting [3]); in experiment [1]; in experiment [2]) was > 100 µM throughout.

As for `CCCCCCCCCCCCCCCCNC(=O)[C@H](CCC(N)=O)NC(=O)[C@@H]1CC[C@@H]2CCCC[C@H](NC(=O)[C@H](Cc3ccc(OP(=O)(O)O)cc3)NC(=O)CCN3CCOCC3)C(=O)N21`, the results for the half-maximal inhibitory concentration (IC50) (on STAT3 protein; in experiment [1]; in experiment [2]) were < 5 µM, < 40 µM and < 40 µM, respectively.

Consider `CCCCCCCCCCCCCCCC(=O)N[C@H](Cc1ccc(OCP(=O)(O)O)cc1)C(=O)N[C@H]1CCCCC2CC[C@@H](C(=O)N[C@@H](CCC(N)=O)C(=O)NCc3ccccc3)N2C1=O` (stereo partly drawn), for which the IC50 is < 5 µM at STAT3 protein, < 100 µM in experiment [1] and < 50 µM in experiment [2].
